Assay results as given in patent publication US11390629B2, “1,5-disubstituted 1,2,3-triazoles are inhibitors of Rac/Cdc42 GTPases” (UNIVERSITY OF PUERTO RICO, priority 2016, dated 2022).
“Also recorded” adds a separate entry of the source.

Key:
[1] = system: caspase-3/7 activity in MDA-MB-231 cells; assay: Caspase-Glo 3/7 apoptosis assay; type: cell-based, human; conditions: 0-1000 nM, 24 h, MDA-MB-231 and GFP-HER2-BM
Procedure: Effect of MBQ-167 on cell survival.
To evaluate whether the cell cycle arrest was accompanied by an increase in apoptosis, the activity of the effector caspases3/7 in whole cell populations (both attached and detached). […] To determine whether MBQ-167 induces anoikis, the relative levels of caspase-3/7 activities were analyzed in the attached and detached MDA-MB-231 cell populations following 24 h at 250 nM MBQ-167.
Apoptosis was measured using a Caspase-Glo3/7 Luminescence Assay Kit as per manufacturer's instructions (Promega, Corp., Madison, Wis., USA). Following treatment of equal numbers of cells with vehicle or MBQ-167 for 24 h, Caspase-3/7 Glo reagent was added and incubated at room temperature for 60 min. Caspase-3/7 activities were determined by quantifying luminescence.

[2] = system: c-Myc, Bcl-XL, Bcl-2, BAD; assay: Expression of oncogenes and survival proteins, MDA-MB-435 cells; type: cell-based, human; conditions: 150 nM, 24 h
Text: Studies from a number of cancer types have shown that Rac/Cdc42/PAK signaling can induce cell survival and evade apoptosis. Therefore, the decreased cell viability and increased apoptosis by MBQ-167, at concentrations that inhibit both Rac and Cdc42, is predicted to be due to dual inhibition of Rac and Cdc42 function.

Rho = Rho activation pulldown (Rhotekin), GFP-HER2-BM cells; conditions: 24 h, listed as MBQ-167
Bcl-2, Bcl-xL, Mcl-1 = assay: Western blot of pro-survival proteins, MDA-MB-231; conditions: 250 nM, 24 h

`CCn1c2ccccc2c2cc(-n3nncc3-c3ccccc3)ccc21` [I-1, 9-ethyl-3-(5-phenyl-1H-1,2,3-triazol-1-yl)-9H-carbazole] was tested, and the “caspase-3/7 activity in whole cell populations” value [1] was “dose-dependent increase”, the “expression of c-Myc, Bcl-XL, Bcl-2” value [2] was “reduced expression” and the “pro-apoptotic protein BAD” value [2] was “concomitant increase”. For the same compound, the “effect on Rho activity” value (Rho) was “did not affect; also recorded: does not affect” and the “expression of pro-survival proteins Bcl-2, Bcl-xL, Mcl-1” value (Bcl-2, Bcl-xL, Mcl-1) was “significant decrease”.
